According to PubChem BioAssay AID330 (DTP/NCI, 2004):
Where “and” joins values, the source holds several entries; their conditions need not be identical. Identical values can stand only once. Inconclusive results and toxic doses are left out.

System: P388 leukemia ip, CD2F1 mice, survival T/C
Test: NCI In Vivo Anticancer Drug Screen. Data for tumor model P388 Leukemia (intraperitoneal) in CD2F1 (CDF1) mice
Conditions: endpoint: median survival time, higher = longer survival
In short: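 Mice carrying the transplanted tumor received test compound or vehicle. Survival was recorded in each group, and the value is the treated-group measurement divided by that of the vehicle-treated control group.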

[1] = dose: 50.0 mg/kg/injection, schedule: Q01DX009 (ip), vehicle: saline with Tween-80
[2] = dose: 100.0 mg/kg/injection, schedule: Q01DX009 (ip), vehicle: saline with Tween-80
[3] = dose: 200.0 mg/kg/injection, schedule: Q01DX009 (ip), vehicle: saline with Tween-80
[4] = dose: 50.0 mg/kg/injection, schedule: Q01DX005 (ip), vehicle: saline with Tween-80
[5] = dose: 100.0 mg/kg/injection, schedule: Q01DX005 (ip), vehicle: saline with Tween-80

Compound: COc1cc2c(cc1OC)C13CCN4CC5=CCOC6CC(=O)N2C1C6C5CC43 (configuration not stated) (tested in a mixture with another compound)
- T/C (dose: 25.0 mg/kg/injection, schedule: Q04DX003 (ip), vehicle: saline with Tween-80): 100 % of control
- T/C [1]: 104 % of control
- T/C (dose: 50.0 mg/kg/injection, schedule: Q04DX003 (ip), vehicle: saline with Tween-80): 104 % of control
- T/C [2]: 106 % of control
- T/C (dose: 100.0 mg/kg/injection, schedule: Q04DX003 (ip), vehicle: saline with Tween-80): 104 % of control

Compound: COc1ccc(C(F)C(N)C#N)cc1 (configuration not stated)
- T/C (dose: 60.0 mg/kg/injection, schedule: Q01DX005 (ip), vehicle: saline): 109 % of control
- T/C (dose: 120.0 mg/kg/injection, schedule: Q01DX005 (ip), vehicle: saline): 98 % of control
- T/C (dose: 240.0 mg/kg/injection, schedule: Q01DX005 (ip), vehicle: saline): 107 % of control

Compound: CCN(C=Nc1ccc(Cl)cc1C)CC
- T/C (dose: 50.0 mg/kg/injection, schedule: Q01DX009 (ip), vehicle: Klucel (hydroxypropylcellulose) (HPC)): 105 % of control
- T/C (dose: 100.0 mg/kg/injection, schedule: Q01DX009 (ip), vehicle: Klucel (hydroxypropylcellulose) (HPC)): 117 % of control

Compound: CC(C)(CCC(=S)N1CCOCC1)c1ccccc1
- T/C (dose: 25.0 mg/kg/injection, schedule: Q01DX009 (ip), vehicle: saline with Tween-80): 111 % of control
- T/C [1]: 96 % of control
- T/C [2]: 105 % of control
- T/C [3]: 105 % of control

Compound: CCOC(=O)C1=C(C#N)C(C(=O)OCC)c2ncccc21 (configuration not stated)
- T/C (dose: 25.0 mg/kg/injection, schedule: Q01DX009 (ip), vehicle: suspension in saline): 93 % of control
- T/C (dose: 50.0 mg/kg/injection, schedule: Q01DX009 (ip), vehicle: suspension in saline): 93 % of control
- T/C (dose: 100.0 mg/kg/injection, schedule: Q01DX009 (ip), vehicle: suspension in saline): 100 % of control
- T/C (dose: 200.0 mg/kg/injection, schedule: Q01DX009 (ip), vehicle: suspension in saline): 92 % of control

Compound: CCCCCCCCOC(=O)c1ccc(I)cc1
- T/C [1]: 97 % of control
- T/C [2]: 101 % of control
- T/C [3]: 97 % of control

Compound: O=C(O)C(Cc1ccccc1)Nc1ncnc2nc[nH]c12 (configuration not stated)
- T/C (dose: 50.0 mg/kg/injection, schedule: Q01DX005 (ip), vehicle: Klucel (hydroxypropylcellulose) (HPC)): 93 % of control
- T/C (dose: 100.0 mg/kg/injection, schedule: Q01DX005 (ip), vehicle: Klucel (hydroxypropylcellulose) (HPC)): 100 % of control
- T/C (dose: 200.0 mg/kg/injection, schedule: Q01DX005 (ip), vehicle: Klucel (hydroxypropylcellulose) (HPC)): 100 % of control

Compound: CCN(CC)C(=O)C(Cc1ccc(OC)c(OC)c1)C(Cc1ccc(OC)c(OC)c1)C(=O)O (configuration not stated)
- T/C (dose: 100.0 mg/kg/injection, schedule: Q04DX003 (ip), vehicle: other): 95 % of control
- T/C (dose: 200.0 mg/kg/injection, schedule: Q04DX003 (ip), vehicle: other): 95 % of control
- T/C (dose: 400.0 mg/kg/injection, schedule: Q04DX003 (ip), vehicle: other): 95 % of control

Compound: CNC(=O)OCc1c(COC(=O)NC)c(-c2ccc([N+](=O)[O-])cc2)n(C)c1C
- T/C (dose: 6.25 mg/kg/injection, schedule: Q01DX009 (ip), vehicle: distilled water + Tween-80): 151 % of control and 153 % of control
- T/C (dose: 12.5 mg/kg/injection, schedule: Q01DX009 (ip), vehicle: distilled water + Tween-80): 159 % of control and 169 % of control

Compound: CC1(C)CC(NC(=O)C(C)(C)Oc2ccc(Cl)cc2)CC(C)(C)N1
- T/C [4]: 107 % of control
- T/C [5]: 100 % of control
- T/C (dose: 200.0 mg/kg/injection, schedule: Q01DX005 (ip), vehicle: saline with Tween-80): 98 % of control

Compound: CC1CN=C(c2ccc(NC(=O)c3ccc(NC(=O)c4ccc(C5=NCC(C)N5)cc4)cc3)cc2)N1 (configuration not stated)
- T/C (dose: 6.25 mg/kg/injection, schedule: Q01DX005 (ip), vehicle: saline with Tween-80): 119 % of control and 123 % of control
- T/C (dose: 12.5 mg/kg/injection, schedule: Q01DX005 (ip), vehicle: saline with Tween-80): 110 % of control

Compound: [Br][Rh][Br].[NH-]c1nc2ccc(Br)cc2s1.[NH-]c1nc2ccc(Br)cc2s1.[NH-]c1nc2ccc(Br)cc2s1.[NH-]c1nc2ccc(Br)cc2s1
- T/C (dose: 50.0 mg/kg/injection, schedule: Q01DX009 (ip), vehicle: saline): 100 % of control
- T/C (dose: 100.0 mg/kg/injection, schedule: Q01DX009 (ip), vehicle: saline): 98 % of control
- T/C (dose: 200.0 mg/kg/injection, schedule: Q01DX009 (ip), vehicle: saline): 100 % of control

Compound: CCOC(=O)N1CCc2cc3c(cc2C1Cc1ccc(OC)c(OC)c1CCl)OCO3 (configuration not stated)
- T/C [4]: 100 % of control
- T/C [5]: 92 % of control

Compound: COc1cc(OC)cc(C2OC3=C(Nc4ccc([N+](=O)[O-])cc4N3)C2=O)c1 (configuration not stated)
- T/C (dose: 60.0 mg/kg/injection, schedule: Q01DX005 (ip), vehicle: Klucel (hydroxypropylcellulose) (HPC)): 90 % of control
- T/C (dose: 120.0 mg/kg/injection, schedule: Q01DX005 (ip), vehicle: Klucel (hydroxypropylcellulose) (HPC)): 90 % of control
- T/C (dose: 240.0 mg/kg/injection, schedule: Q01DX005 (ip), vehicle: Klucel (hydroxypropylcellulose) (HPC)): 90 % of control
